# Assays:
# [1] = Triggering the chemiluminescence of hydroxy-substituted dioxetanes with base; conditions: for base-induced chemiluminescence: base-induced decomposition, room temperature (2b: potassium t-butoxide in o-xylene, 25° C.)
# Experimental: (§1) A solution of the dioxetane in a suitable solvent (e.g. o-xylene) was placed in the reaction vial as described above. The vial was placed in the sample holder which was maintained at a temperature such that thermal decomposition of the dioxetane was negligible. Instrument parameters were selected as above and data collection started. A solution of the releasing agent (e.g. base or fluoride) preferably in the reaction solvent was injected by syringe into the rapidly stirred dioxetane solution. The volume of releasing agent added was generally less than 5% of the total volume so that temperature fluctuation of the sample during the time course of the decay was minimal. The pseudo-first order decay was monitored for at least three half-lives.
# 1. Triggering the Chemiluminescence of Hydroxy-Substituted Dioxetanes with Base: Potassium tert-butoxide induced decomposition of 2b. […].
# [2] = Thermal decomposition of dioxetanes monitored by decay of chemiluminescence (activation parameters in xylene); assay type: physicochemical
# Experimental: Rates of dioxetane decomposition were monitored by the decay of chemiluminescence of aerated solutions. A cylindrical Pyrex vial equipped with magnet stir bar was filled with 3-4 mL of the reaction solvent, sealed with a Teflon-lined screw cap and placed in the thermostatted sample block of the chemiluminescence-measuring apparatus (Black Box). Temperature control was provided by an external circulating water bath. Appropriate values for the instrument gain and optical slit size were selected. […]. The vial was sealed with a Teflon-lined screw cap to prevent evaporation when high temperatures were used. Measurement of the signal was begun by opening the shutter. The chemiluminescent decay was generally recorded for at least three half-lives. Calculation of the first-order rate constant, k, from the In(Intensity) vs. time data was performed by a computer program utilizing a standard least-squares treatment. The correlation coefficient, r, was typically at least 0.999 and varied less than 5% between replicate samples. The observed rate was not measurably concentration dependent.
# Activation parameters for decomposition of the dioxetanes were calculated from plots of In k vs. 1/T (Arrhenius eq.) or In k/t vs. 1/T (Eyring eq.) by a standard least-squares linear regression analysis.
# Activation Energies for Decomposition of Dioxetanes 2 in Xylene.
# [3] = for fluoride induced chemiluminescence in polar aprotic solvents: polar aprotic solvents such as acetonitrile
# Experimental: as §1
# 2. Triggering the Chemiluminescence of Silyloxy-Substituted Dioxetanes with Fluorde Ion: Fluoride ion induced decomposition of 2c. […]. […]. A spectrum of the chemiluminescence obtained from the fluoride triggering of 2c in 1:1 aqueous/2-methoxyethanol is shown in FIG. 1 with the solid line. The fluorescence of the cleavage product (methyl 6-hydroxy-2-naphthoate) from the dioxetane is also shown with the dashed line for comparison.
# [4] = Triggering properties of further prepared dioxetanes (general statement)
# [5] = assay type: physicochemical; conditions: 0.002M in 2-methoxyethanol, stored at 0° C.
# Experimental: (§2) A secondary stock solution of the acetate-protected dioxetane 2e was made by evaporating an aliquot of the methylene chloride stock equivalent to 10 micromoles of dioxetane and dissolving in 5.0 mL of 2-methoxyethanol to give a final concentration of 0.002M. […] Buffer solutions prepared in distilled water were 0.05M phosphate pH 7.6 and 8.0, 0.02M Tris (tris-hydroxymethylaminomethane maleate) pH 7.6, and pH 9.0 phosphate/borate buffer. Aryl esterase (also called carboxylic ester hydrolase (P-5221)) from porcine liver was purchased from Sigma Chemical Co. as a suspension of 11 mg of protein per mL in 3.2M (NH4)2 SO4 solution pH 8.0. Each mg of protein is equivalent to 260 Units, where 1 Unit is defined as the amount which will hydrolyze 1 micromole of ethyl butyrate in 1 minute at pH 8.0, 25° C. […] Injection of 1 μL of (0.26 units) of aryl esterase to the stirred solution caused a chemiluminescent signal to appear. The intensity reached a maximum at about 3 minutes and decayed over a 30 minute period.
# Stability of Enzyme and Dioxetane to Reaction Conditions. Many dioxetanes are known to be destroyed via a non-luminescent pathway by acid catalyzed processes in protic solvents. Similarly, amines are also known to cause the catalytic destruction of dioxetanes via an electron-transfer process. […]
# [6] = molecular target: T1, Acetylcholinesterase from human erythrocytes (Homo sapiens, UniProt P22303); assay: Enzymatic triggering of chemiluminescence with acetylcholinesterase; assay type: biochemical; conditions: 0.05M phosphate buffer, pH 8.0, 37.0° C.
# T1 construct: purchased Sigma Chemical Co. C-3389; host or cells: human erythrocytes
# Description: Acetylcholinesterase, an enzyme of considerable biological significance, hydrolyzes acetylcholine to choline and acetic acid under physiological conditions. It was of interest to determine whether this enzyme would also initiate the chemiluminescent decomposition of the acetyl-protected dioxetane 2e by removal of the acetyl group. Acetylcholinesterase (C-3389) from human erythrocytes was purchased from Sigma Chemical Co. as a lyophilized powder containing phosphate buffer salts. […]. Addition of more dioxetane during this period generated more light.
# [7] = tested on: Aryl esterase (carboxylic ester hydrolase) from porcine liver; assay: Enzymatic triggering of chemiluminescence with aryl esterase; assay type: biochemical; conditions: for effect of added competing esterase substrate on light intensity: […] solution added at maximum emission of 2e, pH 7.6 phosphate buffer, 37° C.
# Experimental: as §2
# 3.) When distilled water was substituted for the Tris buffer, no chemiluminescence signal was observed, but on adding Tris buffer to this solution light emission similar to that above was produced. […] Addition of untreated enzyme preparation to this solution again produced light. […] The emission could be totally extinguished by addition of sufficient SDS. The decrease in light emission is not due to photophysical quenching of the excited state since thermal decomposition in the same solvent system at elevated temperatures results in readily detectable chemiluminescence.
# This type of behavior explains the effect of the addition of the known esterase substrates α-naphthyl acetate and β-naphthyl acetate. […] A solution of 25 μL of the dioxetane stock (0.002M) in 3 mL of pH 7.6 phosphate buffer maintained at 37° C. was treated with 5 μL of the enzyme to initiate the chemiluminescence. At the point of maximum emission […] of 0.011M solution of either α- or β-naphthyl acetate were added.
# [8] = tested on: alkaline phosphatase from Bovine Intestinal Mucosa; assay: Enzymatic triggering of chemiluminescence with alkaline phosphatase (Type VII-S); assay type: biochemical; conditions: 2-amino-2-methyl-1-propanol buffer pH 10.3, 1.5M, 37° C., 10 μL enzyme suspension
# Experimental: A cuvette containing 3 mL of a buffer solution of 2-amino-2-methyl-l-propanol (Sigma Chemical Co., pH=10.3, 1.5M) was placed in the black box at 37° C. A portion (200 μL) of the dioxetane stock solution (6d in CH2 Cl2) was added to this buffer solution. Subsequent addition of 10 μL of an alkaline phosphatase suspension [Sigma, Type VII-S from Bovine Intestinal Mucosa, suspension in 3.2M (NH4)2 SO4 ] gave rise to chemiluminescence over a period of approximately 2-3 min indicating the enzymatic triggering of the dioxetane.
# [9] = 25° C.; cited from earlier work
# [10] = 1 μL (0.26 units) aryl esterase, pH 7.6 Tris buffer, 25° C.
# T1 sequence (P22303 other isoform, or with tags, fused parts or gaps): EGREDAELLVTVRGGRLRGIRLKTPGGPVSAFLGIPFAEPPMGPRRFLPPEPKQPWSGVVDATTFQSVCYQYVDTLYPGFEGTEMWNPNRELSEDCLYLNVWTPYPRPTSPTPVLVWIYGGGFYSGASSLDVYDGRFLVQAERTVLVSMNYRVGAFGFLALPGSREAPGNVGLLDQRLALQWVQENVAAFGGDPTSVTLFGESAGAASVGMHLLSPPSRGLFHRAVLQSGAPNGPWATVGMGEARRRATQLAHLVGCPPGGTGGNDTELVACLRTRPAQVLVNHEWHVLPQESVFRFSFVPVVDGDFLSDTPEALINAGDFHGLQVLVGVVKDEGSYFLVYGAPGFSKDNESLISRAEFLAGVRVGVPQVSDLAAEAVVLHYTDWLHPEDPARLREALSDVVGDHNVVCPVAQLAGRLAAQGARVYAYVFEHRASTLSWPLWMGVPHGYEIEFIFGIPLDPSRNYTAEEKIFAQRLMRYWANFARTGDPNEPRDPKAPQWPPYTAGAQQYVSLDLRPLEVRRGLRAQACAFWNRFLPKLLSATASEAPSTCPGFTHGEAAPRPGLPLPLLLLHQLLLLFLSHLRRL
smiles,measurement,setting,value
"COC1(c2ccc3cc(O)ccc3c2)OOC12C1CC3CC(C1)CC2C3 (stereo not shown) [Dioxetane 2b, 4-(6-Hydroxy-2-naphthyl)-4-methoxyspiro[1,2-dioxetane-3,2'-adamantane]]",base-induced chemiluminescence,[1],intense blue chemiluminescence
same,base-induced chemiluminescence with other bases,"[1]; methanol with KOH as base, or o-xylene with n-BuLi as base",bright blue chemiluminescence with similar decay rates
COC1(c2ccc3cc(O[Si](C)(C)C(C)(C)C)ccc3c2)OOC12C1CC3CC(C1)CC2C3 (stereo not shown) [Dioxetane 2c],Ea (activation energy for decomposition),[2]; decomposition in xylene,27.0
same,"half-life of chemiluminescence decay, fluoride ion induced","[3]; 10^-4 M dioxetane, 0.01M tetrabutylammonium fluoride in 2-methoxyethanol, room temperature, pseudo-first order, 100 µM",about 20 minutes
same,fluoride induced chemiluminescence,[3]; tetrabutylammonium fluoride in 2-methoxyethanol,Blue chemiluminescence was produced
COC1(c2ccc3cc(O[Si](c4ccccc4)(c4ccccc4)C(C)(C)C)ccc3c2)OOC12C1CC3CC(C1)CC2C3 (stereo not shown) [Dioxetane 2d],triggering properties,[4],triggering properties similar to dioxetanes 2a-c and 2e
same,fluoride induced chemiluminescence in polar aprotic solvents,[3],bright chemiluminescence
"COC1(c2ccc3cc(OC(C)=O)ccc3c2)OOC12C1CC3CC(C1)CC2C3 (stereo not shown) [Dioxetane 2e, 4-(6-Acetoxy-2-naphthyl)-4-methoxyspiro[1,2-dioxetane-3,2'-adamantane]]",stability of stock solution on storage,[5],stable indefinitely
same,duration of light emission,[6],20 s
same,duration of thermal chemiluminescence,[2]; aliquot injected into 3 mL of o-xylene at 95° C.,persisted for several hours
same,period over which chemiluminescence decayed,[7]; [10],30 min
same,time at which chemiluminescence intensity reached a maximum,[7]; [10],about 3 minutes
same,maximum light intensity IMAX versus temperature,"[7]; 1 μL enzyme in Tris buffer at 25, 37 and 50° C.",increased with increasing temperature
same,chemiluminescence with enzyme medium only,"[7]; 3 mL Tris buffer containing 5 μL of 3 M (NH4)2SO4, no enzyme, 25° C.",produced no chemiluminescence
same,chemiluminescence signal without enzyme,"[7]; 150 μL (0.3 μmol) dioxetane stock in 3.0 mL pH 7.6 Tris buffer, 25° C., before enzyme",no chemiluminescence signal was detected
same,chemiluminescence with denatured enzyme,[7]; enzyme heated to 90° C. in Tris buffer and cooled to 25° C.,resulted in no chemiluminescence
Oc1ccc2c(c1)C1(OOC13C1CC4CC(C1)CC3C4)c1ccccc1-2 (stereo not shown) [Dioxetane 4a],triggering properties,[4],triggering properties similar to dioxetanes 2a-c and 2e
same,base-induced chemiluminescence,[1],produced chemiluminescence at room temperature
"CC(C)(C)[Si](C)(C)Oc1ccc2c(c1)C1(OOC13C1CC4CC(C1)CC3C4)c1ccccc1-2 (stereo not shown) [Dioxetane 4b, Dispiro[adamantane-2,3'-[1,2]dioxetane-4',9""-(2-tert-butyldimethylsilyloxy-9-fluorene)]]",fluoride induced chemiluminescence in polar aprotic solvents,[3],bright chemiluminescence
Oc1ccc2c(c1)Oc1ccccc1C21OOC12C1CC3CC(C1)CC2C3 (stereo not shown) [Dioxetane 6a],triggering properties,[4],triggering properties similar to dioxetanes 2a-c and 2e
same,base-induced chemiluminescence,[1],produced chemiluminescence at room temperature
CC(C)(C)[Si](C)(C)Oc1ccc2c(c1)Oc1ccccc1C21OOC12C1CC3CC(C1)CC2C3 (stereo not shown) [Dioxetane 6b],triggering properties,[4],triggering properties similar to dioxetanes 2a-c and 2e
same,fluoride induced chemiluminescence in polar aprotic solvents,[3],bright chemiluminescence
CC(=O)Oc1ccc2c(c1)Oc1ccccc1C21OOC12C1CC3CC(C1)CC2C3 (stereo not shown) [Dioxetane 6c],triggering properties,[4],triggering properties similar to dioxetanes 2a-c and 2e
"O=P(O)(O)Oc1ccc2c(c1)Oc1ccccc1C21OOC12C1CC3CC(C1)CC2C3 (stereo not shown) [Dioxetane 6d, Dispiro[adamantane-2,3'-[1,2]dioxetane-4',9""-(3-phosphate-9H-xanthene]]",period of chemiluminescence after enzyme addition,[8],2 to 3 min
COC1(c2cccc(O)c2)OOC12C1CC3CC(C1)CC2C3 (stereo not shown) [Dioxetane 8a],base-induced chemiluminescence,[1],produced chemiluminescence at room temperature
"COC1(c2cccc(O[Si](C)(C)C(C)(C)C)c2)OOC12C1CC3CC(C1)CC2C3 (stereo not shown) [Dioxetane 8b, 4-(3-tert-Butyldimethylsilyloxyphenyl)-4-methoxyspiro[1,2-dioxetane-3,2'-adamantane]]",fluoride induced chemiluminescence in polar aprotic solvents,[3],bright chemiluminescence
Oc1ccc(C23OCCOC2(c2ccccc2)OO3)cc1 (stereo not shown) [deprotonated dioxetane (X=O^-)],decomposition rate relative to protonated form (X=OH),[9],5.7×10^6 times faster
"CCCCCCCCCCCCOS(=O)(=O)[O-].[Na+] [sodium lauryl sulfate (SDS), sodium lauryl sulfate, reference compound]",effect of enzyme inhibitor on light emission,"[7]; added at maximum emission of 2e, Tris buffer, 1.5 μL enzyme",irreversible decrease in the intensity
"CC(=O)Oc1cccc2ccccc12 [α-naphthyl acetate, reference compound]",effect of added competing esterase substrate on light intensity,[7],rapid decrease in light intensity
"CC(=O)Oc1ccc2ccccc2c1 [β-naphthyl acetate, reference compound]",effect of added competing esterase substrate on light intensity,[7],rapid decrease in light intensity
